Patent US10583206B2, “Radioactive probe for detecting hydrogen sulfide” (KYUNGPOOK NATIONAL UNIVERSITY INDUSTRY-ACADEMIC COOPERATION …, priority 2015, dated 2020)

Tests used:
[1] = test system: Paw inflammation model; type: in vivo, Balb/c or ICR mice
Procedure: (1) Paw Pain Inflammation Model
A small amount of CFA (complete Freund's adjuvant) or formalin was injected into only one paw (right) of the hind paws of Balb/c or ICR mice to establish inflammation models. 1 day after injection of the inflammation inducer, the mice were used in imaging or other in vivo experiments.
It is a known fact that inflamed sites show high concentrations of hydrogen sulfide.
Nuclear medicine imaging was measured by using an Inveon PET/CT system of Siemens Healthcare, and optical imaging was measured by using IVIS spectrum CT equipment. Cherenkov radiation emitted from ^64Cu was measured by using a highly sensitive CCD (charge-coupled device) camera.
Imaging was measured for 1 minute to 5 minutes, and a radiation dose was about 50 μCi to 2000 μCi, and photographs were variously taken as needed, such as immediately after first injection, at 1 hour, 4 hours, and 24 hours later.

[2] = Test of hydrogen sulfide detection over time (^64CuS formation, radio-TLC); type: physicochemical; design: unit not given here; conditions: 100 μM NaHS, 37° C.
Procedure: To examine reactivity of the ^64Cu-labeled complex compound according to the present disclosure over time, the following experiment was performed.
A detailed experimental method is as follows.
About 45 μCi-50 μCi of ^64Cu-labeled complex compound (250 μL of triple distilled water) was mixed with 100 μM of NaHS solution ([…] of triple distilled water), and stirred at 37° C. for 15 minutes. Formation of copper sulfide (^64CuS) was quantified by using a radio-TLC scanner.

[3] = Test of hydrogen sulfide detection sensitivity (% decomplexation with NaHS, radio-TLC); type: physicochemical; conditions: for % decomplexation: 37° C. for 15 minutes; for % decomplexation against 100 μM NaHS solution: Table 3
Procedure: To measure hydrogen sulfide detection sensitivity of the ^64Cu-labeled complex compound according to the present disclosure, the following experiment was performed.
About 45 μCi-55 μCi of ^64Cu-labeled complex compound (250 μL of triple distilled water) was mixed with various concentrations of NaHS solution (250 µL of triple distilled water), and stirred at 37° C. for 15 minutes (a total volume used in the reaction was equally 500 μL). After completion of the reaction, the resulting products were strongly stirred to mix appropriately.
Formation of copper sulfide (^64CuS) was confirmed by quantification of % decomplexation by using a radio-TLC scanner, and results are shown in the following Tables 2 and 3.

[4] = Hydrogen sulfide selectivity test: decomplexation by DAT (diallyl trisulphide); type: physicochemical; conditions: DAT = diallyl trisulphide (100 μM); 37° C. for 15 minutes
Procedure: (§1) In addition to hydrogen sulfide, many different anions, radicals, etc. exist in the body. Therefore, to examine selective reactivity of the ^64Cu-labeled complex compound according to the present disclosure for sulfide ions, the following experiment was performed.
(§2) About 45 μCi-55 μCi of the ^64Cu-labeled complex compound (250 μL of triple distilled water) was mixed with 100 μM of various anion solutions (250 μL of triple distilled water) including biothiol, and stirred at 37° C. for 15 minutes.
(§3) Formation of copper sulfide (^64CuS) was quantified by using a radio-TLC scanner.
(§4) Various biothiol or salt solutions were prepared by dissolving the compounds in triple distilled water.
(§5) In Table, concentrations of all biothiols and other competitive materials are 100 μM. Further, specific concentrations of biothiols, anions, and oxidants used in Table are as follows: [L-Cys (1 mM); L-Hcys (10 mM); GSH (10 mM); DL-dithiothretitol (DTT, 100 μM); L-ascorbic acid (L-AsA, 10 mM); 2-mercaptoethanol (2-ME, 10 mM); NaCl (10 mm); KI (1 mM); Na2S2O3 (1 mM); Na2S2O5 (1 mM); NaOAc (1 mM); H2O2 ([…]); NaClO4 (100 μM); NaHCO3 (100 μM); NaNO2 ([…]); NaN3 (100 μM); ATB 337 (100 μM); diallyl trisulphide (100 μM)].

[5] = Hydrogen sulfide selectivity test: decomplexation by NaCl; type: physicochemical; conditions: 100 μM or NaCl (10 mm), 37° C. for 15 minutes
Procedure: as §1, §2, §3, §4, §5

[6] = Hydrogen sulfide selectivity test: decomplexation by Na2S2O5; type: physicochemical; conditions: 100 μM or (1 mM), 37° C. for 15 minutes
Procedure: as §1, §2, §3, §4, §5

[7] = Hydrogen sulfide selectivity test: decomplexation by NaOAc; type: physicochemical; conditions: 100 μM or (1 mM), 37° C. for 15 minutes
Procedure: as §1, §2, §3, §4, §5

[8] = Hydrogen sulfide selectivity test: decomplexation by GSH; type: physicochemical; conditions: 100 μM or GSH (10 mM), 37° C. for 15 minutes
Procedure: as §1, §2, §3, §4, §5

[9] = Hydrogen sulfide selectivity test: decomplexation by Hcys; type: physicochemical; conditions: 100 μM or L-Hcys (10 mM), 37° C. for 15 minutes
Procedure: as §1, §2, §3, §4, §5

[10] = Hydrogen sulfide selectivity test: decomplexation by ME; type: physicochemical; conditions: 2-mercaptoethanol; 100 μM or (2-ME, 10 mM); 37° C. for 15 minutes
Procedure: as §1, §2, §3, §4, §5

[11] = Hydrogen sulfide selectivity test: decomplexation by L-AsA; type: physicochemical; conditions: L-ascorbic acid; 100 μM or (L-AsA, 10 mM); 37° C. for 15 minutes
Procedure: as §1, §2, §3, §4, §5

[12] = Hydrogen sulfide selectivity test: decomplexation by NaNO2; type: physicochemical; conditions: NaNO2 (100 µM); 37° C. for 15 minutes
Procedure: as §1, §2, §3, §4, §5

[13] = Hydrogen sulfide selectivity test: decomplexation by NaClO4; type: physicochemical; conditions: NaClO4 (100 μM); 37° C. for 15 minutes
Procedure: as §1, §2, §3, §4, §5

[14] = Hydrogen sulfide selectivity test: decomplexation by DTT; type: physicochemical; conditions: DL-dithiothretitol (DTT, 100 μM); 37° C. for 15 minutes
Procedure: as §1, §2, §3, §4, §5

[15] = Hydrogen sulfide selectivity test: decomplexation by Kl; type: physicochemical; conditions: 100 μM or KI (1 mM), 37° C. for 15 minutes
Procedure: as §1, §2, §3, §4, §5

[16] = Hydrogen sulfide selectivity test: decomplexation by NaHCO3; type: physicochemical; conditions: NaHCO3 (100 μM); 37° C. for 15 minutes
Procedure: as §1, §2, §3, §4, §5

[17] = Hydrogen sulfide selectivity test: decomplexation by ATB 337; type: physicochemical; conditions: ATB 337 (100 μM); 37° C. for 15 minutes
Procedure: as §1, §2, §3, §4, §5

[18] = Hydrogen sulfide selectivity test: decomplexation by Cys; type: physicochemical; conditions: 100 μM or L-Cys (1 mM), 37° C. for 15 minutes
Procedure: as §1, §2, §3, §4, §5

[19] = Hydrogen sulfide selectivity test: decomplexation by H2O2; type: physicochemical; conditions: H2O2 (100 µM); 37° C. for 15 minutes
Procedure: as §1, §2, §3, §4, §5

[20] = Hydrogen sulfide selectivity test: decomplexation by Na2S2O3; type: physicochemical; conditions: 100 μM or (1 mM), 37° C. for 15 minutes
Procedure: as §1, §2, §3, §4, §5

[21] = Hydrogen sulfide selectivity test: decomplexation by NaN3; type: physicochemical; conditions: NaN3 (100 μM); 37° C. for 15 minutes
Procedure: as §1, §2, §3, §4, §5

[22] = test system: Myocardial infarction model; test: Imaging study in myocardial infarction model (PET); type: in vivo, Sprague-Dawley rats; conditions: PET imaging after injection
Description: (2) Myocardial Infarction Model
A myocardial infarction model was established by using Sprague-Dawley rats (12-week-old or older, about 250 g). 2 days later after induction of myocardial infarction by occlusion of the coronary arteries in the heart, the rats were used in imaging tests. It is a known fact that myocardial infarction sites show high concentrations of hydrogen sulfide.
It is known that myocardial infarction sites show high concentrations of hydrogen sulfide. Thus, after induction of myocardial infarction by coronary artery occlusion in rats, 50 μCi-900 μCi of the ^64Cu-labeled complex compound was injected via the tails of the rats, and uptake in the myocardial infarction site was examined over time by PET imaging.
36 hours after establishment of the myocardial infarction model, 730 μCi of the radioisotope-labeled complex compound of the present disclosure was injected and nuclear medicine imaging was performed. 2 days later, […] of FDG was injected into the same rat, and then FDG-PET images were obtained. Results are shown in FIGS. 15 to 17 (in the nuclear medicine imaging, the upper image represents a transverse image, and the lower image represents a coronal image).

Structure (SMILES): [64Cu+2].c1ccc2c(CN3CCNCCNCCNCC3)c3ccccc3cc2c1 [Example 2]
- selective uptake in inflamed sites ([1]; optical imaging and nuclear medicine imaging): selective uptake
- Formation of copper sulfide (^64CuS) over time ([2]; 10 sec): 21
- Formation of copper sulfide (^64CuS) over time ([2]; 30 sec): 22
- Formation of copper sulfide (^64CuS) over time ([2]; 60 sec): 33
- Formation of copper sulfide (^64CuS) over time ([2]; 5 min): 82
- Formation of copper sulfide (^64CuS) over time ([2]; 10 min): 100
- Formation of copper sulfide (^64CuS) over time ([2]; 15 min): 100
- % decomplexation ([3]; NaHS 0 μM): 0%
- % decomplexation ([3]; NaHS 1 μM): 0%
- % decomplexation ([3]; NaHS 10 μM): 0%
- % decomplexation ([3]; NaHS 15 μM): 0%
- % decomplexation ([3]; NaHS 20 μM): 15%
- % decomplexation ([3]; NaHS 50 μM): 56%
- % decomplexation ([3]; NaHS 100 μM): 100%

Structure (SMILES): CC1CC[N]2C3CCCCC3[N]3C(C)CC[N]4C5CCCCC5[N]1[64Cu]423 (stereo not shown) [Example 9]
- uptake in inflamed paw versus opposite paw ([1]; optical and nuclear medicine imaging performed 2 hours later): higher uptakes

Structure (SMILES): C1C[SH]2CC[SH]3CC[SH]4CC[N]1[64Cu]243 (stereo not shown) [Example 23]
- Decomplexation [%] [4]: 0.4%
- Decomplexation [%] [5]: 0.5%
- Decomplexation [%] [6]: 0.6%
- Decomplexation [%] [7]: 0.3%
- Decomplexation [%] [8]: 0.7%
- Decomplexation [%] [9]: 0.4%
- Decomplexation [%] [10]: 0.5%
- Decomplexation [%] [11]: 0.4%
- Decomplexation [%] [12]: 0.6%
- Decomplexation [%] [13]: 0.8%
- Decomplexation [%] [14]: 0.4%
- Decomplexation [%] [15]: 0.2%
- Decomplexation [%] [16]: 0.1%
- Decomplexation [%] [17]: 0.6%
- Decomplexation [%] [18]: 0.5%
- % decomplexation against 100 μM NaHS solution [3]: 78.3 ± 2.6%
- % decomplexation ([3]; NaHS 0 μM): 0%
- % decomplexation ([3]; NaHS 1 μM): 0%
- % decomplexation ([3]; NaHS 10 μM): 0%
- % decomplexation ([3]; NaHS 15 μM): 36.4%
- % decomplexation ([3]; NaHS 20 μM): 49.4%
- % decomplexation ([3]; NaHS 50 μM): 67.7%
- % decomplexation ([3]; NaHS 100 μM): 78.2%
- Decomplexation [%] [19]: 0.3%
- Decomplexation [%] [20]: 0.2%
- Decomplexation [%] [21]: 0.8%

Structure (SMILES): CN1CCCNCCNCCNCC1.[64Cu+2] [Example 24]
- % decomplexation against 100 μM NaHS solution [3]: 0%

Structure (SMILES): C1CNCCN2CCCNCCN(C1)CCC2 [Example 25]
- % decomplexation against 100 μM NaHS solution [3]: 0%

Structure (SMILES): C/C(=N\O)[C@@H](C)NCC(C)(C)CN[C@H](C)/C(C)=N/O [Example 26]
- % decomplexation against 100 μM NaHS solution [3]: 62.43 ± 0.87%

Structure (SMILES): c1ccc(CNCc2ccccn2)nc1 [Example 33]
- % decomplexation against 100 μM NaHS solution [3]: 26.6%

Structure (SMILES): OC[C@H]1O[C@@H](O)[C@H]([18F])[C@@H](O)[C@@H]1O [FDG, reference compound]
- uptake / visualisation of the myocardial infarction site [22]: uptake did not occur in the myocardial infarction site
